Measured values as given in ChEMBL document CHEMBL4346710, “Discovery of 7H-pyrrolo[2,3-d]pyrimidine derivatives as selective covalent irreversible inhibitors of interleukin-2-inducible T-cell kinase (Itk)” (Eur J Med Chem, 2019).

How the values were obtained:
Homo sapiens = species: Homo sapiens; experiment: Selectivity ratio of IC50 for recombinant human N-terminal GST-tagged EGFR kinase domain (696 to end residues) expressed in baculovirus infected Sf21 insect cells to IC50 for recombinant human N-terminal His6-tagged ITK (352 to 617 residues) expressed in baculovirus infected Sf21 insect cells
[1] = target: Rho-associated protein kinase 2 (Homo sapiens) (UniProt O75116); experiment: Inhibition of recombinant human N-terminal GST-tagged ROCK2 catalytic domain (1 to 552 residues) expressed in baculovirus expression system assessed as enzyme residual activity at 0.4 uM using fluorophore-labeled serine/threonine-13 peptide as substrate incubated for 60 mins by Z'-LYTE assay relative to control
Rho-associated protein kinase 2 (Homo sapiens), sequence (O75116 whole entry, looked up, the tested form may be a part, canonical isoform): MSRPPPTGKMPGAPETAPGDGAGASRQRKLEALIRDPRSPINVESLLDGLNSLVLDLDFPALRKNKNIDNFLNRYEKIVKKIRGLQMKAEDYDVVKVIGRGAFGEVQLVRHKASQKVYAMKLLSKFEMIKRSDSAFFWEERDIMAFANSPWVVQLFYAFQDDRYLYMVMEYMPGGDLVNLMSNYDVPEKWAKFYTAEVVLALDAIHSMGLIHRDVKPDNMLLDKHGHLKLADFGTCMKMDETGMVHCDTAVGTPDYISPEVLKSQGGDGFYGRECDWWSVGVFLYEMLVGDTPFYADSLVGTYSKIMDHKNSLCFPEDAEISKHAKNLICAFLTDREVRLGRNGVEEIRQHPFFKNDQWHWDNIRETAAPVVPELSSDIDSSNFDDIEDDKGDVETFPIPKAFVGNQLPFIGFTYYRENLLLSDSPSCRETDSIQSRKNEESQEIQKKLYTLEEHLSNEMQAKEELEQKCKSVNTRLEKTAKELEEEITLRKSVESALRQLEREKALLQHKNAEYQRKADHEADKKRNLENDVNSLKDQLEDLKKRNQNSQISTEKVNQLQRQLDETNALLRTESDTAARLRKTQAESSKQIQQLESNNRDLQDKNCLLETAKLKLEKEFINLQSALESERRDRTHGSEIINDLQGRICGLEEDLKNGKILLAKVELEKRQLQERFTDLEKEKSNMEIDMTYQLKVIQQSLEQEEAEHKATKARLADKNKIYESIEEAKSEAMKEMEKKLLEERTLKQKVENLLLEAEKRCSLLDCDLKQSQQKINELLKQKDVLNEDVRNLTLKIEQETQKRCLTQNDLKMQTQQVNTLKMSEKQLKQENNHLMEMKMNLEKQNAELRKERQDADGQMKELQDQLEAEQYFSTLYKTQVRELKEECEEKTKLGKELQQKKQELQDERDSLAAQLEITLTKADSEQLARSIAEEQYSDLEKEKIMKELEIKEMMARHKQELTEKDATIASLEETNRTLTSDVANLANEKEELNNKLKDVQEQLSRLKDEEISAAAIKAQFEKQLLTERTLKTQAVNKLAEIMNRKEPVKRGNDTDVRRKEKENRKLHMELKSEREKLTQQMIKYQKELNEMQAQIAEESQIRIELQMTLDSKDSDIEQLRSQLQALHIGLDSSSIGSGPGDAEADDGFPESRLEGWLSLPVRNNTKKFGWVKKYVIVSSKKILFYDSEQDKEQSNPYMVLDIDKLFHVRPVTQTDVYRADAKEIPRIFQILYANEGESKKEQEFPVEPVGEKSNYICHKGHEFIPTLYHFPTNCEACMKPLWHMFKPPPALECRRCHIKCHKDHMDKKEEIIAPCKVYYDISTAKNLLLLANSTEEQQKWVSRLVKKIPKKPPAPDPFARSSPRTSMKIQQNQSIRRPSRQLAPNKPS

[2] = target: Casein kinase I isoform alpha (Homo sapiens) (UniProt P48729); experiment: Inhibition of recombinant full length human GST-tagged CSNK1A1 expressed in baculovirus expression system assessed as enzyme residual activity at 0.4 uM using fluorophore-labeled serine/threonine-11 peptide as substrate incubated for 60 mins by Z'-LYTE assay relative to control
Casein kinase I isoform alpha (Homo sapiens), sequence (P48729 2-337 limits assumed): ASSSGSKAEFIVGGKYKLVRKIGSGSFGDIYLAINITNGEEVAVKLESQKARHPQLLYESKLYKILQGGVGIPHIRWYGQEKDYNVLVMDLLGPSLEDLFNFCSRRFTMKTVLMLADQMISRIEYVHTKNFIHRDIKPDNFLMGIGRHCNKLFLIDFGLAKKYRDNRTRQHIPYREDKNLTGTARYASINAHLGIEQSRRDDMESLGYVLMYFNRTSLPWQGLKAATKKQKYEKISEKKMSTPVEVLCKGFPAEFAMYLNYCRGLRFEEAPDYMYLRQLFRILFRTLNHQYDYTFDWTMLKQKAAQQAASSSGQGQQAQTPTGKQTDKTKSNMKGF

[3] = target: Tyrosine-protein kinase ABL1 (Homo sapiens) (UniProt P00519); experiment: Inhibition of recombinant full length human His-tagged ABL1 cytoplasmic domain expressed in baculovirus expression system assessed as enzyme residual activity at 0.4 uM using fluorophore-labeled tyrosine-2 peptide as substrate incubated for 60 mins by Z'-LYTE assay relative to control
Tyrosine-protein kinase ABL1 (Homo sapiens), sequence (P00519 whole entry, the tested form may be a part): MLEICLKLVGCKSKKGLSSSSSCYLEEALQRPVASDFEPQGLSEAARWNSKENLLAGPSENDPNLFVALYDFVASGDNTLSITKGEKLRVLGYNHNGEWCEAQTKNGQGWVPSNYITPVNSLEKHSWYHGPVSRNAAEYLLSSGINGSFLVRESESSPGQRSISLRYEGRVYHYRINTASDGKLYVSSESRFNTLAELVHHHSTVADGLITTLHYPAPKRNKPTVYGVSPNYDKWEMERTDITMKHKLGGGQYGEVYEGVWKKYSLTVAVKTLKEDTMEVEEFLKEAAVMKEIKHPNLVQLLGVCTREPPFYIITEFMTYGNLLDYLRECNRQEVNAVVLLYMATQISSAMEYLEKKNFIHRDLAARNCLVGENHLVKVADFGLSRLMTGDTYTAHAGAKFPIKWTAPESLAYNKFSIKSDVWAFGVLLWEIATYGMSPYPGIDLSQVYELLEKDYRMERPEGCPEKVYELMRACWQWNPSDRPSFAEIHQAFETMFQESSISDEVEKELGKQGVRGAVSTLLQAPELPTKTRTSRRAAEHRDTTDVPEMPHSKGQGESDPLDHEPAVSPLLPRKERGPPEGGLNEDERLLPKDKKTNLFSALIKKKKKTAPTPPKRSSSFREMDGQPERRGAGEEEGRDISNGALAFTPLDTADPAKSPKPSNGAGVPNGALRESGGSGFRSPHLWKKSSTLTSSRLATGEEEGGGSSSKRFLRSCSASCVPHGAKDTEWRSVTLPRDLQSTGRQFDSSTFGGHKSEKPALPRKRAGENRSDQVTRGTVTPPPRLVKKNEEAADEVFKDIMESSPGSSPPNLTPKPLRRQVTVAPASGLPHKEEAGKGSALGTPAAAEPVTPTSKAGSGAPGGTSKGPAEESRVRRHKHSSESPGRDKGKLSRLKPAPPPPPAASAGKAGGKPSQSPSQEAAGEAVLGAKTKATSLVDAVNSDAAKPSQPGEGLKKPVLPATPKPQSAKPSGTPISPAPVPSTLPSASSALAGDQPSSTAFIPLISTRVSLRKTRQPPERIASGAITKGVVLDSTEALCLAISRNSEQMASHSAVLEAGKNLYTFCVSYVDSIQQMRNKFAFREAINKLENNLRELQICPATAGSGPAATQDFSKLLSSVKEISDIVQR

TAK1/TAB1 = TAK1/TAB1 (Homo sapiens, UniProt O43318); experiment: Inhibition of tracer 222 binding to recombinant full-length human His-tagged MAP3K7/MAP3K7IP1 (437 to 504 residues) expressed in baculovirus expression system by Lanthascreen assay
TAK1/TAB1, sequence (Q15750 whole entry, the tested form may be a part): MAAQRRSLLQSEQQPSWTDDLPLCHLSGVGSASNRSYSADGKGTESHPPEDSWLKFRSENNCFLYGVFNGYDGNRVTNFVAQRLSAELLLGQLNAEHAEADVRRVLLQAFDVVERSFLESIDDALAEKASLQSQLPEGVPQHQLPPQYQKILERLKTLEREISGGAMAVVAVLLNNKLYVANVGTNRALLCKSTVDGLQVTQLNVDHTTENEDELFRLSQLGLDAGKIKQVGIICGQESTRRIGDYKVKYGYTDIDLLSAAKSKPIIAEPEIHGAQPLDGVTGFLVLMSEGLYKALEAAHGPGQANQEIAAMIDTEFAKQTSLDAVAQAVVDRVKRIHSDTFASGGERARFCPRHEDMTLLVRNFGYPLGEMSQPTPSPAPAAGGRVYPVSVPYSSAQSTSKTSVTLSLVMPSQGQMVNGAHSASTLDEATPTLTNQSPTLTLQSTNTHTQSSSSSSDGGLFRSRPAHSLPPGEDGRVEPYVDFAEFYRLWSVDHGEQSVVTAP
TAK1/TAB1, sequence (O43318 whole entry, the tested form may be a part): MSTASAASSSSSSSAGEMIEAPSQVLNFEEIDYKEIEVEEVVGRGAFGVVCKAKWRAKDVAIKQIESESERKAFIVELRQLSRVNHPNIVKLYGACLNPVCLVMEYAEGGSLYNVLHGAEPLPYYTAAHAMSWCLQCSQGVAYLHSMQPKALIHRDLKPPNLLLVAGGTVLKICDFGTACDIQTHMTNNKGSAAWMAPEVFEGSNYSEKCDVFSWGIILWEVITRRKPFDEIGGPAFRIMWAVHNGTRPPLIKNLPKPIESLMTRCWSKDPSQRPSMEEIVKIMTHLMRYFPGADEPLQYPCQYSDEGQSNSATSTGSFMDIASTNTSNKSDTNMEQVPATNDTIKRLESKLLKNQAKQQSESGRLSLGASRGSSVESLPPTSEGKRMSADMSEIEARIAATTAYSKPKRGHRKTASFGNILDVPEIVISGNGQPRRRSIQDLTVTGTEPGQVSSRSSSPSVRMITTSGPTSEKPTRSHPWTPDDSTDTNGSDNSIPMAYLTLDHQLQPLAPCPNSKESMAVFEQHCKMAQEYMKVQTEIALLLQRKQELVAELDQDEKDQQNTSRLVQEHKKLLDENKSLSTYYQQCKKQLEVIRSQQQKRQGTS

Q: `C=CC(=O)N1CCC(Oc2nc(Nc3ccc(N4CCOCC4)cc3)nc3[nH]cc(-c4cncc(NC)n4)c23)CC1` was tested. Which Ratio IC50 (Homo sapiens) did it give?
A: The Ratio IC50 was 250.

Q: What about the Activity [1] of the same compound?
A: The Activity was 96.3%.

Q: What about the Activity [2] of the same compound?
A: Its Activity is 92.7%.

Q: And the Activity [3]?
A: The Activity was 11.7%.

Q: And the IC50 (TAK1/TAB1)?
A: The IC50 was 54 nM.
